Experimental data published in patent US9181253B2 (The United States of America, as represented by the …, priority 2008, dated 2015).
Several values for one entry are separate records, joined by “and”; a condition that tells them apart may be missing. Equal values may be shown once. Marks after values point to notes of the source that are not given here.

Legend:
[1] = molecular target: human A3AR (Homo sapiens (Human), UniProt P0DMS8); assay: [35S]GTPγS binding assay, membranes of CHO cells expressing human A3AR; format: biochemical; conditions: stimulation measured by [35S]GTPγS binding assay
[2] = molecular target: human A1 receptors (Homo sapiens (Human), UniProt P30542); assay: Binding assay at human A1 receptors (Example 2); conditions: CHO cells expressing human A1AR; radioligand [3H]CCPA or [3H]R-PIA; n = 3-5; read-out: Affinity (Ki, nM) A1
[3] = molecular target: human A2A receptors (Homo sapiens (Human), UniProt P29274); assay: Binding assay at human A2A receptors (Example 2); conditions: HEK cells expressing human A2AAR; radioligand [3H]CGS21680; n = 3-5; read-out: Affinity (Ki, nM) A2A
[4] = molecular target: T1, hA1AR (Homo sapiens (Human), UniProt P30542); assay: Radioligand membrane binding at hA1AR (Example 6); conditions: for Ki: CHO cells expressing hA1AR, [3H]R-PIA, n = 3-5, read-out: Affinity Ki, nM A1
Method: (§1) In addition, 800 μg/mL Geneticin and 500 μg/mL hygromycin were added to the A2A media and to the A1 and A3 media, respectively. […] The concentration of protein was determined using a BCA Protein Assay Kit from Pierce Biotechnology (Rockford, Ill.).
(§2) Radioligand binding assays at A1, A2A, and A3ARs were performed according to the procedures described previously.
(§3) All of the filters were washed 3 times with Tris-HCl, pH 7.5. […] Filters for A3AR binding were counted using a PerkinElmer Cobra II γ-counter.
(§4) Binding and functional parameters were calculated using Prism 5.0 software (GraphPAD, San Diego, Calif., USA). IC50 values obtained from competition curves were converted to Ki values using the Cheng-Prusoff equation. Data were expressed as mean±standard error.

[5] = molecular target: hA2AAR (Homo sapiens (Human), UniProt P29274); assay: Radioligand membrane binding at hA2AAR (Example 6); conditions: HEK293 cells expressing hA2AAR; [3H]CGS21680; n = 3-5; read-out: Affinity Ki, nM A2A
Method: as §1, §2, §3, §4

[6] = molecular target: T1, hA1AR; assay: A1AR functional assay, inhibition of forskolin-stimulated cyclic AMP production in AR-transfected CHO cells; format: cell-based; conditions: for % Inhibition, cyclic AMP A1: maximal efficacy at 10 μM, in comparison to effect (100%) of full agonist CPA at 10 μM, n = 3-5; for inhibition at 10 µM: CHO, read-out: % Inhibition, cyclic AMP A1
[7] = test system: seizures induced by 6 Hz corneal stimulation in mice; assay: 6 Hz minimal clonic seizure test; format: in vivo; conditions: for ED50: Mus musculus, ip, read-out: 6 Hz model ED50
Method: (§5) For the MES and 6 Hz tests, a drop of anesthetic/electrolyte solution (0.5% tetracaine hydrochloride in 0.9% saline) was applied to the eyes of each animal prior to placement of the corneal electrodes. The electrical stimulus in the MES test was 50 mA, 60 Hz, for mice. Abolition of the hindleg tonic extensor component of the seizure was used as the endpoint.
The ability of the test substance to prevent seizures induced by 6 Hz corneal stimulation (32 mA, 3 sec duration) in mice was evaluated at a convulsive current that evokes a seizure in 97% of the population tested (CC97). Six Hz seizures are characterized by a minimal clonic phase that is followed by stereotyped, automatistic behaviors described originally as being similar to the aura of human patients with partial seizures. Toman, J. E. et al., Tex. Rep.
Animals not displaying this behavior were considered protected.

[8] = test system: MES seizures in mice; assay: Maximal electroshock (MES) seizure test; format: in vivo; conditions: i.p.
Method: The electrical tests used were the maximal electroshock (MES) seizure test, the 6 Hz minimal clonic seizure test, and the corneal kindled mouse test. The chemical test was the s.c. metrazol seizure tests. Time of peak effect (TPE) is deduced from data generated in initial qualitative test procedures. Five groups of 4 animals each are administered the test compound, and each group is tested at one of five different time intervals: ¼, ½, 1, 2 and 4 h. The time point at which the compound produces the most activity/toxicity was chosen as TPE.
as §5

[9] = test system: s.c. metrazol seizures in mice; assay: s.c. metrazol (scMET) seizure test; format: in vivo; conditions: i.p.
Excerpt: In vivo anticonvulsant activity was established by both electrical and chemoconvulsant seizure tests which have been described previously. White, H. S., et al., Ital. J. Neurol. […] White, H. S. et al., Antiepileptic Drugs ([…].; Meldrum, B. S. ed), 1995, pp 99-110, Raven Press, New York.; and Smith, M., et al., Neurotherapeutics 2007, 4, 12-17. The electrical tests used were the maximal electroshock (MES) seizure test, the 6 Hz minimal clonic seizure test, and the corneal kindled mouse test. The chemical test was the s.c. metrazol seizure tests. Time of peak effect (TPE) is deduced from data generated in initial qualitative test procedures. […] The time point at which the compound produces the most activity/toxicity was chosen as TPE.

[10] = test system: corneal kindled mice; assay: Corneal-kindled mouse model of partial seizures; format: in vivo; conditions: qualitative test, 3 mg/kg, 1 hour post injection, n=4
Excerpt: Mice were kindled according to the methods described by […] and […]; […] Louis, Mo.) was applied to the cornea to ensure local anesthesia and good electrical conductivity. Stimulations were at least four hours apart. […] See Racine, R., Electroencephalogr. Clin. Neurophysiol. 1972, pp. 281-294. At the completion of the kindling acquisition, mice were permitted at least a 3-day stimulation-free period prior to any drug testing. Mice were stimulated once the day before drug testing to ensure they had achieved and maintained a kindled state. On the day of the drug study, corneal kindled mice (n=4, or 8) received a single i.p. dose of test compound. Mice were challenged with the corneal kindling stimulus of 3 mA for 3 seconds at TPE after test compound administration. Mice were scored as protected (seizure score of ≦3) or not protected, (seizure score ≧4) based on the Racine scoring.

[11] = in vivo; conditions: mouse, ip
[12] = test system: mice; assay: Minimal behavioral toxicity test, rotorod procedure; conditions: i.p.
[13] = molecular target: hA3AR (Homo sapiens (Human), UniProt P0DMS8); assay: Radioligand membrane binding at hA3AR (Example 6); conditions: CHO cells expressing hA3AR; [125I]I-AB-MECA; n = 3-5; read-out: Affinity Ki, nM A3
[14] = mice, i.p., measured at 1 h post injection

Sequence of human A2A receptors (P29274 whole entry): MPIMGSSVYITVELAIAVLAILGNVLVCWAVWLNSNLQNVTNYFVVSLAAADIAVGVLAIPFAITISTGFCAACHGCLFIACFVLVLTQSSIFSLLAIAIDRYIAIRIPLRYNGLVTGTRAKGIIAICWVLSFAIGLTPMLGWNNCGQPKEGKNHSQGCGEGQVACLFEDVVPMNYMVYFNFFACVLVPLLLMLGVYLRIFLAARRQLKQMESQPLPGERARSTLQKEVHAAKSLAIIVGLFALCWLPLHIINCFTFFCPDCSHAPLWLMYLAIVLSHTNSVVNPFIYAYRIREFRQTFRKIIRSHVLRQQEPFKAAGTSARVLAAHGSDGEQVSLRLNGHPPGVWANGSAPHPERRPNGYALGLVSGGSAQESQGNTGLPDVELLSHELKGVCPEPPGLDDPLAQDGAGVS
Sequence of hA2AAR (P29274 whole entry): as above
Sequence of hA3AR (P0DMS8 whole entry): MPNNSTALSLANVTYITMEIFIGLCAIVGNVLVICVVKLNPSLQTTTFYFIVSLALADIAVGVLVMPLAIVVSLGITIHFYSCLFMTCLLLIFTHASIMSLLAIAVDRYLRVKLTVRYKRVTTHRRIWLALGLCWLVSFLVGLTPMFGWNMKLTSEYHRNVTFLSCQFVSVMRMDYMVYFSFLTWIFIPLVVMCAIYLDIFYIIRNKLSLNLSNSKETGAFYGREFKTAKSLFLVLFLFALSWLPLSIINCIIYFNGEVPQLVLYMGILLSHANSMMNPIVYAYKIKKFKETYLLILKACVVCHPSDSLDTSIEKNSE
Sequence of human A3AR (P0DMS8 whole entry): as above
T1 sequence (P30542 whole entry): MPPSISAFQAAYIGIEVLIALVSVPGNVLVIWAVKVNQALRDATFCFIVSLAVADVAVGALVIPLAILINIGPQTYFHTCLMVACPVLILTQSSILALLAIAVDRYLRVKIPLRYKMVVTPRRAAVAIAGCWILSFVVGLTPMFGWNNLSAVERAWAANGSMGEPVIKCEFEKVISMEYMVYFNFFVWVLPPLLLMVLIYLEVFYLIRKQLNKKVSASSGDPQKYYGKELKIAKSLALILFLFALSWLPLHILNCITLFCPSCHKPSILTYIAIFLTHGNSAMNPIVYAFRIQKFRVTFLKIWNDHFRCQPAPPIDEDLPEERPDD
Sequence of human A1 receptors (P30542 whole entry): as above

Compound | % Efficacy A3 [1] [%] | Ki [4] [nM] | Ki [5] [nM] | Ki [13] [nM] | % Inhibition, cyclic AMP A1 [6] [%] | other results
O[C@@H]1[C@H](O)[C@@H]2C[C@@H]2[C@H]1n1cnc2c(N[C@@H]3C[C@H]3c3ccccc3)nc(Cl)nc21 (relative stereo) [Compound 13b, (1′R,2′R,3′S,4′R,5′S)-4′-[2-Chloro-6-(trans-2-phenylcyclopropylamino)purine]-2′,3′-O-dihydroxybicyclo-[3.1.0]hexane] | 9.7 ± 4.1 |  |  |  |  | 
O[C@@H]1[C@H](O)[C@@H]2C[C@@H]2[C@H]1n1cnc2c(NCc3cccc(Cl)c3)nc(Cl)nc21 [Compound 8b, (1′R,2′R,3′S,4′R,5′S)-4′-[2-Chloro-6-(3-chlorobenzylamino)purine]-2′,3′-O-dihydroxybicyclo-[3.1.0]hexane] | 2.9 ± 3.7 |  |  |  |  | Ki [2]: 3070 ± 1500 nM; Ki [3]: 4510 ± 910 nM
O[C@@H]1[C@H](O)[C@@H]2C[C@@H]2[C@H]1n1cnc2c(NCc3cccc(Br)c3)nc(Cl)nc21 [Compound 9b, (1′R,2′R,3′S,4′R,5′S)-4′-[2-Chloro-6-(3-bromobenzylamino)purine]-2′,3′-O-dihydroxybicyclo-[3.1.0]hexane] |  |  |  |  |  | Ki [2]: 1760 ± 1010 nM
COc1ccc(OC)c(CNc2nc(Cl)nc3c2ncn3[C@H]2[C@H](O)[C@H](O)[C@@H]3C[C@@H]32)c1 [Compound 11b, (1′R,2′R,3′S,4′R,5′S)-4′-[2-Chloro-6-(2,5-dimethoxybenzylamino)purine]-2′,3′-O-dihydroxybicyclo-[3.1.0]hexane] | 4.6 ± 3.8 |  |  |  |  | Ki [3]: 2620 ± 730 nM
COc1ccc(O)c(CNc2nc(Cl)nc3c2ncn3[C@H]2[C@H](O)[C@H](O)[C@@H]3C[C@@H]32)c1 [Compound 12b, (1′R,2′R,3′S,4′R,5′S)-4′-[2-Chloro-6-(2-hydroxy-5-methoxybenzylamino)purine]-2′,3′-O-dihydroxybicyclo-[3.1.0]hexane] | 0.4 ± 1.3 |  |  |  |  | Ki [2]: 1110 ± 300 nM; Ki [3]: 6870 ± 1440 nM
O[C@@H]1[C@H](O)[C@@H]2C[C@@H]2[C@H]1n1cnc2c(NC(C3CC3)C3CC3)nc(Cl)nc21 [Compound 121, (1R,2R,3S,4R,5S)-4-(2-Chloro-6-(dicyclopropylmethylamino)-9H-purin-9-yl)bicyclo[3.1.0]hexane-2,3-diol] |  | 47.9 ± 10.5 | 3950 ± 410 |  |  | times less potent at the A1AR in in vitro binding compared to 235b [4]: ~40 times; agonist character at A1 AR, concentration-response curve of inhibition of cyclic AMP production ([6]; FIG. 12, compared to full agonist NECA): full agonist; ED50 [7, 14]: 2.74 mg/kg; ED50 in antiseizure models, times less potent compared to 235b ([7]; mouse, in vivo): about 20 times; MES model, number of animals protected from convulsions ([8]; 3 mg/kg): 1 out of 4; scMET model, number of animals protected from convulsions ([9]; 3 mg/kg): No protection; corneal kindled mouse model, animals protected [10]: all animals (n=4) were protected; TD50 [11]: > 10 mg/kg; Behavioral toxicity TD50 [12]: >10 mg/kg
O[C@@H]1[C@H](O)[C@@H]2C[C@@H]2[C@H]1n1cnc2c(N[C@@H](C3CCC3)C3CC3)nc(Cl)nc21 [Compound 216, (1R,2R,3S,4R,5S)-4-(2-Chloro-6-((R)-cyclopropylcyclobutylmethylamino)-9H-purin-9-yl)bicyclo[3.1.0]hexane-2,3-diol] |  | 270 ± 60 | 5470 ± 300 | 2930 ± 480 | 33.4 ± 5.2 | 
O[C@@H]1[C@H](O)[C@@H]2C[C@@H]2[C@H]1n1cnc2c(N[C@H](C3CCC3)C3CC3)nc(Cl)nc21 [Compound 217, (1R,2R,3S,4R,5S)-4-(2-Chloro-6-((S)-cyclopropylcyclobutylmethylamino)-9H-purin-9-yl)bicyclo[3.1.0]hexane-2,3-diol] |  | 120 ± 40 | 6450 ± 720 | 2790 ± 720 | 18.1 ± 6.8 | 
O[C@@H]1[C@H](O)[C@@H]2C[C@@H]2[C@H]1n1cnc2c(N[C@H](CC3CC3)C3CC3)nc(Cl)nc21 [Compound 218, (1R,2R,3S,4R,5S)-4-(2-Chloro-6-((R)-1,2-dicyclopropylethylamino)-9H-purin-9-yl)bicyclo[3.1.0]hexane-2,3-diol] |  | 490 ± 90 | 4840 ± 400 | 1760 ± 210 |  | inhibition at 10 µM [6]: 18.4 ± 2.1%
O[C@@H]1[C@H](O)[C@@H]2C[C@@H]2[C@H]1n1cnc2c(N[C@@H](CC3CC3)C3CC3)nc(Cl)nc21 [Compound 219, (1R,2R,3S,4R,5S)-4-(2-Chloro-6-((S)-1,2-dicyclopropylethylamino)-9H-purin-9-yl)bicyclo[3.1.0]hexane-2,3-diol] |  | 170 ± 20 | 2550 ± 170 | 550 ± 50 |  | inhibition at 10 µM [6]: 24 ± 5.2%
OC[C@H]1O[C@@H](n2cnc3c(NC4CCCC4)nc(Cl)nc32)[C@H](O)[C@@H]1O [Compound 235b, 2-chloro-N^6-cyclopentyladenosine] |  |  |  |  |  | ED50 [7, 14]: 0.12 mg/kg; 6 Hz model ED50 [7, 14]: 0.12^c mg/kg; MES model, number of animals protected from convulsions ([8]; 1 mg/kg): 1 out of 4 at; scMET model, number of animals protected from convulsions ([9]; 1 mg/kg): 1 out of 4; Behavioral toxicity TD50 ([12]; measured at 1 h post injection): 0.84 mg/kg and 0.84^c mg/kg
(1R,2R,3S,4R,5S)-4-(2-Chloro-6-(endo-norbornyl)-9H-purin-9-yl)bicyclo[3.1.0]hexane-2,3-diol [Compound 113] |  | 82.6 ± 15.8 | 2450 ± 90 | 315 ± 48 | 62.1 ± 18.5 | 
(1R,2R,3S,4R,5S)-4-(2-Chloro-6-(exo-norbornyl)-9H-purin-9-yl)bicyclo[3.1.0]hexane-2,3-diol [Compound 114] |  | 200 ± 30 | 4080 ± 170 | 236 ± 43 | 27.8 ± 6.2 | 
